Reference: ChEMBL document CHEMBL1201862, “PubChem BioAssay data set” (2004)
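These data come from cells grown in 96-well plates and exposed to compound for 48 hours at five concentrations. Here, GI50 denotes the concentration required for 50% inhibition of growth.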 Activity calls are given as the source filed them. Rule as the data show it: active = GI50 up to about 1.1 µM and inactive = higher. Peptide text beside a SMILES is read from it. * marks the point of attachment. Boc = CC(C)(C)OC(=O)*; OtBu = CC(C)(C)O*

How the values were obtained:
Experiment in all cases: NCI anticancer screen, dose series, 48 h
DU-145 = tested on: DU-145
NCI-H226 = tested on: NCI-H226
IGROV-1 = tested on: IGROV-1
CAKI-1 = tested on: CAKI-1
K562 = tested on: K562
EKVX = tested on: EKVX
CCRF-CEM = tested on: CCRF-CEM
HL-60 = tested on: HL-60
OVCAR-8 = tested on: OVCAR-8
HT-29 = tested on: HT-29
HCT-116 = tested on: HCT-116
KM12 = tested on: KM12
A549 = tested on: A549
SK-OV-3 = tested on: SK-OV-3
HCC 2998 = tested on: HCC 2998
MDA-MB-231 = tested on: MDA-MB-231
MDA-MB-435 = tested on: MDA-MB-435
Hs-578T = tested on: Hs-578T
NCI-H23 = tested on: NCI-H23

Row | SMILES | GI50 (DU-145) | GI50 (NCI-H226) | GI50 (IGROV-1) | GI50 (CAKI-1) | GI50 (K562) | GI50 (EKVX) | GI50 (CCRF-CEM) | GI50 (HL-60) | GI50 (OVCAR-8) | GI50 (HT-29) | GI50 (HCT-116) | GI50 (KM12) | GI50 (A549) | GI50 (SK-OV-3) | GI50 (HCC 2998) | GI50 (MDA-MB-231) | GI50 (MDA-MB-435) | GI50 (Hs-578T) | GI50 (NCI-H23)
1 | Cn1c(=O)c2nc3nnc(C#N)c(N)n3c2n(C)c1=O | 72.4 µM (inactive) | 54.1 µM (inactive) | 87.3 µM (inactive) | 51.8 µM (inactive) | > 100 µM (inactive) | > 100 µM (inactive) | 67.8 µM (inactive) | > 100 µM (inactive) | > 100 µM (inactive) | > 100 µM (inactive) | > 100 µM (inactive) | > 100 µM (inactive) | > 100 µM (inactive) | > 100 µM (inactive) | > 100 µM (inactive) | > 100 µM (inactive) | > 100 µM (inactive) |  | 
2 | O=C(CBr)N1CCC2(CC1)SSC1(CCN(C(=O)CBr)CC1)S2 |  |  |  |  | 0.647 µM (active) |  | 0.15 µM (active) | 1.59 µM (inactive) | 1.93 µM (inactive) | 1.81 µM (inactive) | 0.373 µM (active) | 1.7 µM (inactive) | 1.98 µM (inactive) | 1.41 µM (inactive) |  | 2.33 µM (inactive) | 2.12 µM (inactive) | 1.72 µM (inactive) | 1.6 µM (inactive)
3 | CCCCSN1C(=O)c2ccccc2C1=S |  |  | > 100 µM (inactive) | 32.6 µM (inactive) | 22.9 µM (inactive) | > 100 µM (inactive) | 15.9 µM (inactive) | 21.4 µM (inactive) | 60.4 µM (inactive) | 29.4 µM (inactive) | 40.6 µM (inactive) | 37.8 µM (inactive) | > 100 µM (inactive) | > 100 µM (inactive) | 73.5 µM (inactive) |  |  |  | > 100 µM (inactive)
4 | CC(=O)Nc1ccc(NC(=O)c2c(Cl)c(Cl)c(Cl)c(Cl)c2-c2nc3ccccc3[nH]2)cc1 | 46.8 µM (inactive) | 35.4 µM (inactive) | 20.5 µM (inactive) | 38.7 µM (inactive) | 27.5 µM (inactive) | 33.3 µM (inactive) | 32.7 µM (inactive) | 25.9 µM (inactive) | 45.1 µM (inactive) | 35.7 µM (inactive) | 32.1 µM (inactive) | 28.2 µM (inactive) | 36.4 µM (inactive) | 63.4 µM (inactive) | 33.6 µM (inactive) |  | 35.1 µM (inactive) | 77.4 µM (inactive) | 32.5 µM (inactive)
5 | Cc1ccc(C2SC(=N)Nc3c2c(C)nn3C(=O)c2ccccc2O)cc1 (stereo unspecified) | > 10 µM (inactive) | > 10 µM (inactive) | 2.81 µM (inactive) | > 10 µM (inactive) | 4.35 µM (inactive) | > 10 µM (inactive) | > 10 µM (inactive) |  | > 10 µM (inactive) | > 10 µM (inactive) | > 10 µM (inactive) | > 10 µM (inactive) | 3.16 µM (inactive) | 3.3 µM (inactive) |  | > 10 µM (inactive) | 3.78 µM (inactive) | 1.51 µM (inactive) | 7 µM (inactive)
6 | CCCCCCc1cc2cc(C(=O)Nc3cccc(F)c3)c(=N)oc2cc1O | 3.56 µM (inactive) |  | 1.42 µM (inactive) | 2.9 µM (inactive) | 1.15 µM (inactive) | 2.34 µM (inactive) | 1.63 µM (inactive) | 2.36 µM (inactive) | 1.59 µM (inactive) | 17.9 µM (inactive) | 2.86 µM (inactive) | 2.71 µM (inactive) | 3.27 µM (inactive) | 3.37 µM (inactive) | 3.19 µM (inactive) |  | 2.4 µM (inactive) | 2.21 µM (inactive) | 2.12 µM (inactive)
7 | CC(C)(C)OC(=O)CC(NC(=O)OC(C)(C)C)C(=O)NC(Cc1ccccc1)C(N)=O (stereo unspecified) (Boc-Asp(OtBu)-Phe-NH2; configuration not given here) | > 100 µM (inactive) | > 100 µM (inactive) | > 100 µM (inactive) | > 100 µM (inactive) | > 100 µM (inactive) | > 100 µM (inactive) | > 100 µM (inactive) |  | > 100 µM (inactive) | > 100 µM (inactive) | > 100 µM (inactive) | > 100 µM (inactive) | > 100 µM (inactive) | > 100 µM (inactive) |  | > 100 µM (inactive) | > 100 µM (inactive) | > 100 µM (inactive) | > 100 µM (inactive)
8 | Cn1cc(NC(=O)c2cc(NC(=O)CNC(=N)N)cn2C)cc1C(=O)NCCC(=N)N [NETROPSIN CHLORIDE] | > 100 µM (inactive) | > 100 µM (inactive) | > 100 µM (inactive) | > 100 µM (inactive) | > 100 µM (inactive) | > 100 µM (inactive) | > 100 µM (inactive) | > 100 µM (inactive) | > 100 µM (inactive) | > 100 µM (inactive) | > 100 µM (inactive) | > 100 µM (inactive) | > 100 µM (inactive) | > 100 µM (inactive) | > 100 µM (inactive) |  | > 100 µM (inactive) | > 100 µM (inactive) | > 100 µM (inactive)
